In patent US20070014739A1, “Compositions and methods for controlling biofilms and bacterial infections” (priority 2005, published 2007):

Columns and labels:
P. aeruginosa [1] = assay: Biofilm inhibition, comparison of scaffold modifications; type: cell-based; details: effect of modifying corosolic acid at C-19, or at C-3 and C-20
[2] = tested on: E. coli laboratory strain JM109; assay: Inhibition of biofilm formation, crystal violet, 96 well plates; type: cell-based; details: Escherichia coli, JM 109, compared to the controls, read-out: inhibited biofilm formation of the JM109 strain
Procedure: Biofilm inhibition experiments were conducted using an assay adapted from the reported protocol described in Pratt and Kolter, 1998, Molecular Microbiology, 30: 285-293; Li et al., 2001, J. Bacteriol., 183: 897-908. E. coli clinical strain UT189 was grown in LB in 96 well plates at room temperature for one or two days without shaking. E. coli laboratory strain JM109 was grown in LB plus 0.2% glucose in 96 well plates at room temperature for one day without shaking. To quantify the biofilm mass, the suspension culture was poured out and the biofilm was washed three times with water. The biofilm was stained with 0.1% crystal violet for 20 minutes. The plates were then washed three times with water. OD reading at 540 nm was measured to quantify the biofilm mass at the bottom of the wells. Then 95% ethanol was added to dissolve the dye at the bottom and on the wall and the OD reading at 540 nm was measured to quantify the total biofilm mass. To study the overall effect of the compounds (3.6 mg/mL in 100% ethanol as stock solution), it was added with the inoculation and a time course of biofilm mass was measured. Appropriate amounts of 100% ethanol were added to each sample to eliminate the effect of solvent. Each condition had 3-4 replicates on each plate and was performed over multiple days.

[3] = tested on: P. aeruginosa strain PAO1; assay: Rotating disk reactor (RDR) biofilm test with and without tobramycin, culturable bacteria; type: cell-based, Pseudomonas aeruginosa; details: test compound 100 μg/ml 24 h, average of three days
Procedure: Biofilm formation of P. aeruginosa was evaluated using a standardized biofilm method with a rotating disk reactor (RDR). This method provides a model resembling the formation of biofilms in cystic fibrosis patients. The rotating disk reactor consists of a one-liter glass beaker fitted with a drain spout. The bottom of the vessel contains a magnetically driven rotor with six 1.27 cm diameter coupons constructed from polystyrene. The rotor consists of a star-head magnetic stir bar upon which a disk was affixed to hold the coupons. The vessel with the stir bar was placed on a stir plate and rotated to provide fluid shear. A nutrient solution (AB Trace Medium with 0.3 mM glucose, see Table 3 below for composition) was added through a stopper in the top of the reactor at a flow rate of 5 ml/min. The reactor volume was approximately 180 ml and varied slightly between reactors depending on the placement of the drain spout and the rotational speed of the rotor. At a volume of 180 ml, the residence time of the reactors was 36 minutes. The reactors were operated at room temperature (c.a. 26° C.).
For each test, two RDRs were operated in parallel with one receiving test compound and the other serving as an untreated control. The RDRs were sterilized by autoclave, then filled with sterile medium and inoculated with P. aeruginosa strain PAO1. The reactors were then incubated at room temperature in batch mode (no medium flow) for a period of 24 hours, after which the flow was initiated for a further 24 hour incubation. Test compounds were dissolved in 10 ml ethanol to achieve a concentration of 1.8 mg/ml. After the 48 hours of biofilm development described above, the 10 ml of ethanol containing the test compounds were added to the reactor to achieve a final concentration of approximately 50, 100, or 200 μg/ml. Control reactors received 10 ml of ethanol. The reactors were then incubated for an additional 24 hours in batch (no flow) mode. After this incubation period, the six coupons were removed from each reactor and placed in 12-well polystyrene tissue culture plates with wells containing either 2 ml of a 100 μg/ml tobramycin solution or 2 ml of phosphate-buffered saline (PBS). These plates were incubated at room temperature for two hours. The coupons were then rinsed by three transfers to plates containing 2 ml of fresh PBS. For each two RDR reactors run in parallel, four sets of three coupons were obtained: one set with no test compound treatment and no tobramycin treatment, one set with no test compound treatment and tobramycin treatment, one set treated with a test compound treatment and no tobramycin treatment, and one set treated with a test compound treatment and tobramycin. After rinsing, one coupon of each set of three was stained with a LIVE/DEAD® BacLight™ Bacterial Viability Kit (Molecular Probes, Eugene Oreg.) and imaged using epifluorescent microscopy. The remaining two coupons were placed in 10 ml of PBS and sonicated for five minutes to remove and disperse biofilm cells. The resulting bacterial suspensions were then serially diluted in PBS and plated on tryptic soy agar plates for enumeration of culturable bacteria. The plates were incubated for 24 hours at 37° C. before colony forming units (CFU) were determined.
The results are averages from experiments performed on three separate days for each test compound. The values reported are as loglo CFU.

[4] = Bladder concentrations in rats (pharmacokinetic study); details: rat, in vivo; rats, 50 mg/kg oral single bolus in 50% Labrasol, at 24 hours; read-out: Concentrations in the bladder
Procedure: Pharmacokinetic studies of asiatic acid and madecassic acid in rats were performed separately. Asiatic acid and madecassic acid were evaluated at 50 mg/kg (oral). Two animals were assigned to the each group. Prior to dosing, a baseline blood sample was taken from each animal. At time zero for asiatic acid and madecassic acid, a single bolus dose in 50% Labrasol (Gattefosse) was given to each animal. Bladders were analyzed at 24 hours. Concentrations of both asiatic acid and madecassic acid in the bladder were approximately 30 μg/g at 24 hours.

S. mutans = details: U.S. Pat. No. 4,606,911; cited from earlier work
S. salivaris = details: U.S. Pat. No. 4,606,911; cited from earlier work
S. aureus = details: U.S. Pat. No. 4,606,911; cited from earlier work
E. coli = details: U.S. Pat. No. 4,606,911; cited from earlier work
P. aeruginosa [5] = details: U.S. Pat. No. 4,606,911; cited from earlier work
[6] = tested on: E. coli clinical strain UT189 against bladder epithelial cells; assay: Binding to and invasion of bladder epithelial cells by E. coli; type: cell-based; details: 40 μg/ml, 60 minutes; separate experiments (n=4 to 7)
Procedure: The effect of test compounds on bacterial invasion of E. coli clinical strain UT189 was studied as described in Elsinghorst, et al. 1994, Methods Enzymol, 236:405-420; and Martinez et al., 2000, EMBO J., 19:2803-2812. Epithelial bladder cells were grown in plates. Asiatic acid, corosolic acid, or ursolic acid were added at concentrations of 10 μg/ml, 20 μg/ml, or 40 μg/ml to bacteria and epithelial cells for approximately 5, 15, 30, or 60 minutes with approximately 10^7 CFU of E. coli. Binding was assessed at time zero and invasion was assessed at approximately 5, 15, 30, or 60 minutes from completing the mixture of compound, bacteria, and epithelial cells. As a control ethanol was added to cells to a final concentration of 0.1%. The effect of bacterial viability and bacterial adherence during the infection period was evaluated according to the methods described in Martinez et al., 2000, EMBO J., 19:2803-2812.

E. coli UT189[pCOMGFP] = assay: Biofilm pods (IBCs) in bladders of infected mice, intravesical compound, confocal microscopy; type: in vivo, Escherichia coli; details: experiment 1: C3H/HeN mice, 40 μg/ml intravesical with 30 min pre-incubation, 10^8 CFU, five hours; vs controls
Procedure: The procedures in this example has been previously reported by Justice, S. et al. Differentiation and development pathways of uropathogenic Escherichia coli in urinary tract pathogenesis. PNAS, 2004, 101(5), p. 1333-1338. Briefly, E. coli UT189[pCOMGFP] was prepared after retrieval from frozen stocks by inoculating appropriately in LB medium statically for approximately 20 hours. Cells were harvested and suspended in 1 ml of PBS. Cells were diluted appropriately to achieve approximately a 10^8 CFU or 10^7 CFU input into C3H/HeN mice (2 mice per group).
Mice were deprived of water for approximately two hours. In experiment 1, all mice were anesthetized with 0.15 cc ketamine cocktail. In experiment 2, all mice were anesthetized with isofluorane. In experiment 1, urine was dispelled from the bladders and approximately 40 μg/ml of test compound or an appropriate amount of ethanol as control was introduced into the bladders via catheterization of the urethra using a tubing coated tuberculin syringe. 30 minutes was allowed to elapse. In experiment 2, bladders were not pre-incubated with test compounds. Bladders were then expelled and an inoculum of 10^8 CFU (Experiment 1) or 10^7 CFU (Experiment 2) of E. coli containing 40 μg/ml of test compound or equivalent amount of ethanol as controls were introduced into the bladders as indicated above.
In experiment 1 five hours elapsed and in experiment 2 six hours elapsed, and then mice were anesthetized and sacrificed appropriately. The bladders were removed, bisected, stretched, and fixed in 3% paraformaldehyde for 1 hour at room temperature. Bladders were then permeabilized in 0.01% Triton/PBS for 10 minutes and counter stained with TOPRO3 (Molecular Probes) for 10 minutes for visualization by confocal microscopy. Bladders were mounted on Prolong antifade (Molecular Probes).

Row | SMILES | biofilm inhibition against P. aeruginosa relative to corosolic acid (P. aeruginosa [1]) | growth inhibition of S. mutans (S. mutans) | growth inhibition of S. salivaris (S. salivaris) | growth inhibition of S. aureus (S. aureus) | growth inhibition of E. coli (E. coli) | growth inhibition of P. aeruginosa (P. aeruginosa [5]) | other results
1 | C[C@@H]1[C@H]2C3=CCC4[C@@]5(C)CC[C@H](OC(=O)/C=C\c6ccc(O)cc6)C(C)(C)C5CC[C@@]4(C)[C@]3(C)CC[C@@]2(C(=O)O)CC[C@]1(C)O (stereo partly drawn) [3-[4-Hydroxycinnamoyl (cis-)], 20-hydroxy-ursolic acid] | increases biofilm inhibition |  |  |  |  |  | 
2 | C[C@H]1[C@H](C)CC[C@]2(C(=O)O)CC[C@]3(C)C(=CC[C@@H]4[C@@]5(C)C[C@@H](O)[C@H](O)[C@@](C)(CO)[C@@H]5[C@H](O)C[C@]43C)[C@H]12 [Madecassic acid] |  |  |  |  |  |  | inhibition at 5 µg/mL ([2]; 5 ug/ml): ~60%; inhibition at 10 µg/mL ([2]; 10 ug/ml): ~75%; CFU, Test Compound ([3]; no tobramycin): 7.5 loglo CFU; CFU, Tobramycin and Test Compound ([3]; then tobramycin 100 μg/ml 2 h): 5.5 loglo CFU; concentration at 24 h [4]: ~30000 ng/g
3 | CC1(C)CC[C@]2(C(=O)O)CC[C@]3(C)C(=CC[C@@H]4[C@@]5(C)CC[C@H](O)C(C)(C)[C@@H]5CC[C@]43C)[C@@H]2C1 [Oleanolic acid] |  | incomplete inhibition | incomplete inhibition | failed to inhibit | failed to inhibit | failed to inhibit | 
4 | C[C@@H]1CC[C@]2(C(=O)O)CC[C@]3(C)C(=CC[C@@H]4[C@@]5(C)C[C@@H](O)[C@H](O)C(C)(C)[C@@H]5CC[C@]43C)[C@@H]2[C@]1(C)O [Tormentic acid] | slightly reduces the biofilm inhibition |  |  |  |  |  | 
5 | C[C@@H]1CC[C@]2(C(=O)O)CC[C@]3(C)C(=CCC4[C@@]5(C)CC[C@H](O)C(C)(C)C5CC[C@]43C)C2[C@H]1C (stereo partly shown) [Ursolic acid] |  | completely inhibited | completely inhibited | failed to inhibit | failed to inhibit | failed to inhibit | reduced invasion of E. coli into bladder epithelial cells [6]: 76%; reduction in biofilm pods or IBCs in the bladders of mice (E. coli UT189[pCOMGFP]): 70%
